{
  "source": "patent US4874751A",
  "about": "“Antibacterial treatment” (priority 1985, dated 1989)",
  "data": [
    {"smiles": "Cc1cn([C@H]2C[C@H](N=[N+]=[N-])[C@@H](CO)O2)c(=O)[nH]c1=O", "values": [
      {"measurement": "LD50", "setting": "LD50 in mice", "value": "greater than 750 mg/kg"},
      {"measurement": "LD50", "setting": "LD50 in rats", "value": "greater than 750 mg/kg"}
    ]}
  ]
}
